Experimental data taken from patent US20240358693A1, “METHODS OF TREATING PAIN” (Aisa Pharma, Inc., priority 2023, published 2024).

System: participants with Raynaud's Phenomenon secondary mostly to systemic sclerosis (SSc-RP)
Assay: Frequency of weekly symptomatic RP attacks (patient diary), Phase 2a study Part A
Format: in vivo, human
Conditions: ITT Part A
Method: A randomized, placebo-controlled phase 2a study was performed and is in progress to assess the safety and efficacy of cilnidipine (10 mg and 20 mg) alone and in combination with 5 mg tadalafil, in participants with diagnosis of scleroderma and/or secondary Raynaud's disease.
The relevant metrics measured by this tool daily are: • Study medication • SSc-RP symptoms (Reporting an attack including duration of attack) • Severity of the attack considering all symptoms of the attack e.g., tingling, numbness, pain, color changes (VAS 0-10 cm scale) • Participant's location at the time of the attack (inside home/outside home) • Selecting symptoms experienced during the attack (tingling, numbness, pain, color changes, other) • Pain rating during the attack (11-point Likert scale) • The RCS based on how much difficulty participants had with Raynaud's today, how many attacks the participant had, and how long they lasted. Participants will also be asked to consider how much pain, numbness, or other symptoms the Raynaud's caused in fingers (including painful sores), and how much the Raynaud's alone affected the use of hands today (VAS 0-10 cm scale).
Percent change from baseline evaluation for frequency of weekly RP attacks were or will be used as the primary efficacy variable. The sponsor-developed participant-informed diary will be used to record data. Frequency of weekly RP attacks is defined as the total number of RP attacks divided by the number of days with available diary data within the last 7 days of each dosing period then multiplied by 7. Total number of RP attacks during the last 7 days of screening period divided by the number of days with available data then multiplied by 7 will be used as baseline for the analysis of all periods. The variable will be calculated as follows:
Percentage change={(weekly RP attacks for the last 7 days of each dosing period−Baseline weekly RP attacks)/Baseline weekly RP attacks}*100%.
Absolute change=weekly RP attacks for the last 7 days of each dosing period−Baseline weekly RP attacks
Percent change from baseline evaluation for frequency of weekly RP attacks was and will be the primary efficacy endpoint. Frequency of weekly RP attacks is defined as the total number of RP attacks divided by the number of days with available diary data within the last 7 days of each dosing period then multiplied by 7. Total number of RP attacks during the last 7 days of screening period divided by the number of days with available data then multiplied by 7 will be used as baseline for the analysis of all periods.
The following data was actually obtained in accordance with the protocol and plan delineated in Examples 1 and 2. The accompanying data involved 11 patients out of the planned 76 patient study. The study was done in patients with scleroderma (systemic sclerosis) who had relatively frequent Raynaud symptoms as they needed to average at least one attack per day during a screening period of up to two weeks. In this first phase of this double-blind placebo-controlled, prospective randomized study, patients were treated in parallel and after meeting study criteria were randomized to receive either placebo, cilnidipine 10 mg daily, cilnidipine 20 mg daily, tadalafil 5 mg daily, cilnidipine 10 mg plus 5 mg of tadalafil, or cilnidipine 20 mg plus 5 mg of tadalafil.

[1] = Cilnidipine 10 mg, n 1, Excluding Outliers
[2] = Cilnidipine 10 mg, n 1, by Baseline RCS, 1st block (RCS <5.0)
[3] = Cilnidipine 20 mg, n 2, Excluding Outliers
[4] = Cilnidipine 20 mg, n 2, by Baseline RCS, 1st block (RCS <5.0)
[5] = Pooled Cilnidipine 10 mg and Cilnidipine 10 mg + Tadalafil 5 mg (N = 3)
[6] = Pooled Cilnidipine 10 mg and Cilnidipine 10 mg + Tadalafil 5 mg, n 1, by Baseline RCS, 2nd block (RCS >5.0)
[7] = Pooled Cilnidipine 10 mg and Cilnidipine 10 mg + Tadalafil 5 mg, n 2, by Baseline RCS, 1st block (RCS <5.0)
[8] = Pooled Cilnidipine 10 mg and Cilnidipine 10 mg + Tadalafil 5 mg, n 3, Excluding Outliers
[9] = Pooled Cilnidipine 20 mg and Cilnidipine 20 mg + Tadalafil 5 mg (N = 4)
[10] = Pooled Cilnidipine 20 mg and Cilnidipine 20 mg + Tadalafil 5 mg, n 1, by Baseline RCS, 2nd block (RCS >5.0)
[11] = Pooled Cilnidipine 20 mg and Cilnidipine 20 mg + Tadalafil 5 mg, n 3, by Baseline RCS, 1st block (RCS <5.0)

SMILES: COCCOC(=O)C1=C(C)NC(C)=C(C(=O)OC/C=C/c2ccccc2)C1c1cccc([N+](=O)[O-])c1 (stereo not shown) [Cilnidipine, cilnidipine]
- Weekly Symptomatic RP Attacks Change from Baseline, Mean (Cilnidipine 10 mg (N = 1)): −7.00
- Weekly Symptomatic RP Attacks Change from Baseline, Median (Cilnidipine 10 mg (N = 1)): −7.00
- Weekly Symptomatic RP Attacks Percent Change from Baseline, Mean (Cilnidipine 10 mg (N = 1)): −33.33%
- Weekly Symptomatic RP Attacks Percent Change from Baseline, Median (Cilnidipine 10 mg (N = 1)): −33.33%
- Weekly Symptomatic RP Attacks, Mean (Cilnidipine 10 mg (N = 1)): 14.00
- Weekly Symptomatic RP Attacks, Median (Cilnidipine 10 mg (N = 1)): 14.00
- Weekly Symptomatic RP Attacks Change from Baseline, Mean (SD) [1]: −7.00
- Weekly Symptomatic RP Attacks Change from Baseline, Median [1]: −7.00
- Weekly Symptomatic RP Attacks Percent Change from Baseline, Mean (SD) [1]: −33.33%
- Weekly Symptomatic RP Attacks Percent Change from Baseline, Median [1]: −33.33%
- Weekly Symptomatic RP Attacks, Mean (SD) [1]: 14.00
- Weekly Symptomatic RP Attacks, Median [1]: 14.00
- Weekly Symptomatic RP Attacks Change from Baseline, Mean (SD) [2]: −7.00
- Weekly Symptomatic RP Attacks Change from Baseline, Median [2]: −7.00
- Weekly Symptomatic RP Attacks Percent Change from Baseline, Mean (SD) [2]: −33.33%
- Weekly Symptomatic RP Attacks Percent Change from Baseline, Median [2]: −33.33%
- Weekly Symptomatic RP Attacks, Mean (SD) [2]: 14.00
- Weekly Symptomatic RP Attacks, Median [2]: 14.00
- Weekly Symptomatic RP Attacks Change from Baseline, Mean (Cilnidipine 20 mg (N = 2)): −4.50
- Weekly Symptomatic RP Attacks Change from Baseline, Median (Cilnidipine 20 mg (N = 2)): −4.50
- Weekly Symptomatic RP Attacks Percent Change from Baseline, Mean (Cilnidipine 20 mg (N = 2)): −33.73%
- Weekly Symptomatic RP Attacks Percent Change from Baseline, Median (Cilnidipine 20 mg (N = 2)): −33.73%
- Weekly Symptomatic RP Attacks, Mean (Cilnidipine 20 mg (N = 2)): 8.00
- Weekly Symptomatic RP Attacks, Median (Cilnidipine 20 mg (N = 2)): 8.00
- Weekly Symptomatic RP Attacks Change from Baseline, Mean (SD) [3]: −4.50 (3.536)
- Weekly Symptomatic RP Attacks Change from Baseline, Median [3]: −4.50
- Weekly Symptomatic RP Attacks Percent Change from Baseline, Mean (SD) [3]: −33.73 (7.296) %
- Weekly Symptomatic RP Attacks Percent Change from Baseline, Median [3]: −33.73%
- Weekly Symptomatic RP Attacks, Mean (SD) [3]: 8.00 (4.243)
- Weekly Symptomatic RP Attacks, Median [3]: 8.00
- Weekly Symptomatic RP Attacks Change from Baseline, Mean (SD) [4]: −4.50 (3.536)
- Weekly Symptomatic RP Attacks Change from Baseline, Median [4]: −4.50
- Weekly Symptomatic RP Attacks Percent Change from Baseline, Mean (SD) [4]: −33.73 (7.296) %
- Weekly Symptomatic RP Attacks Percent Change from Baseline, Median [4]: −33.73%
- Weekly Symptomatic RP Attacks, Mean (SD) [4]: 8.00 (4.243)
- Weekly Symptomatic RP Attacks, Median [4]: 8.00
- Weekly Symptomatic RP Attacks Change from Baseline, Mean [5]: −4.67
- Weekly Symptomatic RP Attacks Change from Baseline, Median [5]: −4.00
- Weekly Symptomatic RP Attacks Percent Change from Baseline, Mean [5]: −40.21%
- Weekly Symptomatic RP Attacks Percent Change from Baseline, Median [5]: −42.86%
- Weekly Symptomatic RP Attacks, Mean [5]: 7.67
- Weekly Symptomatic RP Attacks, Median [5]: 5.00
- Weekly Symptomatic RP Attacks Change from Baseline, Mean (SD) [6]: −3.00
- Weekly Symptomatic RP Attacks Change from Baseline, Median [6]: −3.00
- Weekly Symptomatic RP Attacks Percent Change from Baseline, Mean (SD) [6]: −42.86%
- Weekly Symptomatic RP Attacks Percent Change from Baseline, Median [6]: −42.86%
- Weekly Symptomatic RP Attacks, Mean (SD) [6]: 4.00
- Weekly Symptomatic RP Attacks, Median [6]: 4.00
- Weekly Symptomatic RP Attacks Change from Baseline, Mean (SD) [7]: −5.50 (2.121)
- Weekly Symptomatic RP Attacks Change from Baseline, Median [7]: −5.50
- Weekly Symptomatic RP Attacks Percent Change from Baseline, Mean (SD) [7]: −38.89 (7.857) %
- Weekly Symptomatic RP Attacks Percent Change from Baseline, Median [7]: −38.89%
- Weekly Symptomatic RP Attacks, Mean (SD) [7]: 9.50 (6.364)
- Weekly Symptomatic RP Attacks, Median [7]: 9.50
- Weekly Symptomatic RP Attacks Change from Baseline, Mean (SD) [8]: −4.67 (2.082)
- Weekly Symptomatic RP Attacks Change from Baseline, Median [8]: −4.00
- Weekly Symptomatic RP Attacks Percent Change from Baseline, Mean (SD) [8]: −40.21 (6.009) %
- Weekly Symptomatic RP Attacks Percent Change from Baseline, Median [8]: −42.86%
- Weekly Symptomatic RP Attacks, Mean (SD) [8]: 7.67 (5.508)
- Weekly Symptomatic RP Attacks, Median [8]: 5.00
- Weekly Symptomatic RP Attacks Change from Baseline, Mean [9]: −3.63
- Weekly Symptomatic RP Attacks Change from Baseline, Median [9]: −3.50
- Weekly Symptomatic RP Attacks Percent Change from Baseline, Mean [9]: −25.00%
- Weekly Symptomatic RP Attacks Percent Change from Baseline, Median [9]: −28.17%
- Weekly Symptomatic RP Attacks, Mean [9]: 9.75
- Weekly Symptomatic RP Attacks, Median [9]: 10.50
- Weekly Symptomatic RP Attacks Change from Baseline, Mean (SD) [10]: −0.50
- Weekly Symptomatic RP Attacks Change from Baseline, Median [10]: −0.50
- Weekly Symptomatic RP Attacks Percent Change from Baseline, Mean (SD) [10]: −4.76%
- Weekly Symptomatic RP Attacks Percent Change from Baseline, Median [10]: −4.76%
- Weekly Symptomatic RP Attacks, Mean (SD) [10]: 10.00
- Weekly Symptomatic RP Attacks, Median [10]: 10.00
- Weekly Symptomatic RP Attacks Change from Baseline, Mean (SD) [11]: −4.67 (2.517)
- Weekly Symptomatic RP Attacks Change from Baseline, Median [11]: −5.00
- Weekly Symptomatic RP Attacks Percent Change from Baseline, Mean (SD) [11]: −31.75 (6.199) %
- Weekly Symptomatic RP Attacks Percent Change from Baseline, Median [11]: −28.57%
- Weekly Symptomatic RP Attacks, Mean (SD) [11]: 9.67 (4.163)
- Weekly Symptomatic RP Attacks, Median [11]: 11.00
- Weekly Symptomatic RP Attacks Change from Baseline, Mean (SD) (Pooled Cilnidipine 20 mg and Cilnidipine 20 mg + Tadalafil 5 mg, n 4, Excluding Outliers): −3.63 (2.926)
